pKi: −log10 of the molar value.
biological target: Pim-1 (Homo sapiens (Human), UniProt P11309); assay: Pim kinase binding activity assay (Example 901), PIM-1 enzyme, Caliper microfluidic peptide phosphorylation; type: biochemical; conditions: 20 pM PIM-1, 10 μM ATP, 1 μM FAM-peptide, 90 minutes at room temperature
Procedure: Pim Kinase Binding Activity
A fluorescent-labeled Pim-specific peptide substrate, was custom synthesized by American Peptide Company (Sunnyvale, Calif.). Reaction Buffer contained 10 mM HEPES, pH 7.2, 10 mM MgCl2, 0.01% Tween 20, 2 mM DTT. Termination Buffer contained 190 mM HEPES, pH 7.2, 0.015% Brij-35, 0.2% Coating Reagent 3 (Caliper Life Sciences, Hopkinton, Mass.), 20 mM EDTA. Separation Buffer contained 100 mM HEPES, pH 7.2, 0.015% Brij-35, 0.1% Coating Reagent 3, 1:200 Coating Reagent 8 (Caliper Life Sciences, Hopkinton, Mass.), 10 mM EDTA and 5% DMSO.
PIM reactions were carried out in a final volume of 10 μL per well in a 384-well plate. A standard enzymatic reaction, initiated by the addition of 5 μL 2×ATP and test compound to 5 μL of 2× enzyme and FAM-peptide, contained 20 pM PIM-1, 50 pM PIM-2, or 55 pM PIM-3, 1 μM FAM-peptide, and 10 μM ATP, in Reaction Buffer. After 90 minutes of incubation at room temperature, the phosphorylation reaction was stopped by the addition of 10 μL Termination Buffer. The product and substrate in each independent reaction were separated on a 12-sipper microfluidic chip (Caliper Life Sciences, Hopkinton, Mass.) run on a Caliper LC3000® (Caliper Life Sciences, Hopkinton, Mass.). The separation of product and substrate was optimized by choosing voltages and pressure using Caliper's Optimizer software (Hopkinton, Mass.). […] The product and substrate fluorophore were excited at 488 nm and detected at 530 nm. Substrate conversion was calculated from the electropherogram using HTS Well Analyzer software (Caliper Life Sciences, Hopkinton, Mass.). Ki values for the test compound were calculated.

Sequence of Pim-1 (P11309 whole entry): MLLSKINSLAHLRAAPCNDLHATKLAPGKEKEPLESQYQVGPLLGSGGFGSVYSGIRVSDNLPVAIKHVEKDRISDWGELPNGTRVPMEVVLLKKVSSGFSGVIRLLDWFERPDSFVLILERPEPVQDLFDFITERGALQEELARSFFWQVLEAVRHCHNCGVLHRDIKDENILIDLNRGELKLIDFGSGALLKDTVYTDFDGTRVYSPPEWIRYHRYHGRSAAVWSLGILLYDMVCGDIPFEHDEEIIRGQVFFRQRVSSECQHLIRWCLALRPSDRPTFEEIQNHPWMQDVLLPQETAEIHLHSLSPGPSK

| SMILES | pKi |
| --- | --- |
| NCCNc1cccc(-c2n[nH]c3cnc(-c4cccnc4)cc23)n1 [Example 143, N1-(6-(5-(pyridin-3-yl)-1H-pyrazolo[3,4-c]pyridin-3-yl)pyridin-2-yl)ethane-1,2-diamine] | 9.51 |
| Fc1ccccc1-c1n[nH]c2cnc(-c3cnccc3O[C@H]3CCCNC3)cc12 [Example 148, (S)-3-(2-fluorophenyl)-5-(4-(piperidin-3-yloxy)pyridin-3-yl)-1H-pyrazolo[3,4-c]pyridin] | 9.47 |
| c1ccc(-c2n[nH]c3cnc(-c4cncnc4)cc23)cc1 [Example 150, 3-phenyl-5-(pyrimidin-5-yl)-1H-pyrazolo[3,4-c]pyridine] | 6.68 |
| c1cncc(-c2cc3c(-c4cn[nH]c4)n[nH]c3cn2)c1 [Example 156, 3-(1H-pyrazol-4-yl)-5-(pyridin-3-yl)-1H-pyrazolo[3,4-c]pyridine] | 8.64 |
| NCCNc1cc(-c2n[nH]c3cnc(-c4cccnc4)cc23)ccn1 [Example 159, N1-(4-(5-(pyridin-3-yl)-1H-pyrazolo[3,4-c]pyridin-3-yl)pyridin-2-yl)ethane-1,2-diamine] | 9.03 |
| NC1CCN(c2cc(-c3n[nH]c4cnc(-c5cccnc5)cc34)ccn2)CC1 [Example 160] | 8.56 |
| c1cncc(-c2cc3c(-c4cccc(N5CCNCC5)n4)n[nH]c3cn2)c1 [Example 162, 3-(6-(piperazin-1-yl)pyridin-2-yl)-5-(pyridin-3-yl)-1H-pyrazolo[3,4-c]pyridine] | 10.43 |
| NCC1CCN(c2cncc(-c3n[nH]c4cnc(-c5cccnc5)cc34)c2)CC1 [Example 165, (1-(5-(5-(pyridin-3-yl)-1H-pyrazolo[3,4-c]pyridin-3-yl)pyridin-3-yl)piperidin-4-yl)methanamine] | 9.01 |
| Fc1ccccc1-c1n[nH]c2cnc(-c3cncc(NC4CCNCC4)c3)cc12 [Example 171, 5-(3-(2-fluorophenyl)-1H-pyrazolo[3,4-c]pyridin-5-yl)-N-(piperidin-4-yl)pyridin-3-amine] | 8.62 |
| COc1ccc(F)c(-c2n[nH]c3cnc(-c4cnn(C)c4)cc23)c1 [Example 172, 3-(2-fluoro-5-methoxyphenyl)-5-(1-methyl-1H-pyrazol-4-yl)-1H-pyrazolo[3,4-c]pyridine] | 8.42 |
| NC(=O)Cn1cc(-c2cc3c(-c4cccc(F)n4)n[nH]c3cn2)cn1 [Example 178, 2-(4-(3-(6-fluoropyridin-2-yl)-1H-pyrazolo[3,4-c]pyridin-5-yl)-1H-pyrazol-1-yl)acetamide] | 7.75 |
| N[C@H]1CCCN(c2cncc(-c3cc4c(-c5ccccc5F)n[nH]c4cn3)c2)C1 [Example 180, (S)-1-(5-(3-(2-fluorophenyl)-1H-pyrazolo[3,4-c]pyridin-5-yl)pyridin-3-yl)piperidin-3-amine] | 9.58 |

The next lines start with the values.

| pKi | SMILES |
| --- | --- |
| 6.39 | NC[C@@H]1CCCN(c2ccncc2-c2cc3c(-c4ccccc4F)n[nH]c3cn2)C1 [Example 140, (S)-(1-(3-(3-(2-fluorophenyl)-1H-pyrazolo[3,4-c]pyridin-5-yl)pyridin-4-yl)piperidin-3-yl)methanamine] |
| 6.51 | c1ccc(-c2n[nH]c3cnc(-n4cncn4)cc23)cc1 [Example 142, 3-phenyl-5-(1H-1,2,4-triazol-1-yl)-1H-pyrazolo[3,4-c]pyridine] |
| 6.49 | N#CCc1n[nH]c2cnc(-c3cn[nH]c3)cc12 [Example 145, 2-(5-(1H-pyrazol-4-yl)-1H-pyrazolo[3,4-c]pyridin-3-yl)acetonitrile] |
| 7.57 | c1ccc(-c2n[nH]c3cnc(-n4ccnc4)cc23)cc1 [Example 146, 5-(1H-imidazol-1-yl)-3-phenyl-1H-pyrazolo[3,4-c]pyridine] |
| 9.21 | Fc1ccccc1-c1n[nH]c2cnc(-c3cnccc3OCC3CCNCC3)cc12 [Example 155, 3-(2-fluorophenyl)-5-(4-(piperidin-4-ylmethoxy)pyridin-3-yl)-1H-pyrazolo[3,4-c]pyridine] |
| 8.88 | NC1CCN(c2cncc(-c3cc4c(-c5ccccc5F)n[nH]c4cn3)c2)CC1 [Example 157, 1-(5-(3-(2-fluorophenyl)-1H-pyrazolo[3,4-c]pyridin-5-yl)pyridin-3-yl)piperidin-4-amine] |
| 8.68 | NC1CCN(c2cncc(-c3n[nH]c4cnc(-c5cccnc5)cc34)c2)CC1 [Example 158, 1-(5-(5-(pyridin-3-yl)-1H-pyrazolo[3,4-c]pyridin-3-yl)pyridin-3-yl)piperidin-4-amine] |
| 8.72 | Cn1cc(-c2cc3c(-c4cnn(C)c4)n[nH]c3cn2)cn1 [Example 163, 3,5-bis(1-methyl-1H-pyrazol-4-yl)-1H-pyrazolo[3,4-c]pyridine] |
| 8.72 | NC[C@H]1CCN(c2cncc(-c3cc4c(-c5ccccc5F)n[nH]c4cn3)c2)C1 [Example 164, (R)-(1-(5-(3-(2-fluorophenyl)-1H-pyrazolo[3,4-c]pyridin-5-yl)pyridin-3-yl)pyrrolidin-3-yl)methanamine] |
| 9.24 | NC1CCCN(c2cncc(-c3cc4c(-c5ccccc5F)n[nH]c4cn3)c2)CC1 (stereo not shown) [Example 166, 1-(5-(3-(2-fluorophenyl)-1H-pyrazolo[3,4-c]pyridin-5-yl)pyridin-3-yl)azepan-4-amine] |
| 8.77 | NCC1CCN(c2cncc(-c3cc4c(-c5ccccc5F)n[nH]c4cn3)c2)CC1 [Example 167, (1-(5-(3-(2-fluorophenyl)-1H-pyrazolo[3,4-c]pyridin-5-yl)pyridin-3-yl)piperidin-4-yl)methanamine] |
| 8.80 | NC[C@H]1CCN(c2cncc(-c3n[nH]c4cnc(-c5cccnc5)cc34)c2)C1 [Example 168, (R)-(1-(5-(5-(pyridin-3-yl)-1H-pyrazolo[3,4-c]pyridin-3-yl)pyridin-3-yl)pyrrolidin-3-yl)methanamine] |
| 8.87 | NC1CCCN(c2cncc(-c3n[nH]c4cnc(-c5cccnc5)cc34)c2)CC1 (stereo not shown) [Example 169, 1-(5-(5-(pyridin-3-yl)-1H-pyrazolo[3,4-c]pyridin-3-yl)pyridin-3-yl)azepan-4-amine] |
| 9.35 | c1cncc(-c2cc3c(-c4cncc(NC5CCNCC5)c4)n[nH]c3cn2)c1 [Example 170, N-(piperidin-4-yl)-5-(5-(pyridin-3-yl)-1H-pyrazolo[3,4-c]pyridin-3-yl)pyridin-3-amine] |
| 10.07 | Cn1cc(-c2cc3c(-c4cccc(N5CCC(N)CC5)n4)n[nH]c3cn2)cn1 [Example 174, 1-(6-(5-(1-methyl-1H-pyrazol-4-yl)-1H-pyrazolo[3,4-c]pyridin-3-yl)pyridin-2-yl)piperidin-4-amine] |
| 9.52 | c1cncc(-c2cc3c(-c4cnn(C5CCNCC5)c4)n[nH]c3cn2)c1 [Example 175, 3-(1-(piperidin-4-yl)-1H-pyrazol-4-yl)-5-(pyridin-3-yl)-1H-pyrazolo[3,4-c]pyridine] |
| 8.19 | c1cncc(-c2cc3c(-c4cccnc4)n[nH]c3cn2)c1 [Example 176, 3,5-di(pyridin-3-yl)-1H-pyrazolo[3,4-c]pyridine] |
| 8.40 | c1cc(-c2n[nH]c3cnc(C4CCCOC4)cc23)nc(N2CCNCC2)c1 (stereo not shown) [Example 181, 3-(6-(piperazin-1-yl)pyridin-2-yl)-5-(tetrahydro-2H-pyran-3-yl)-1H-pyrazolo[3,4-c]pyridine] |
| 10.07 | Cn1cc(-c2cc3c(-c4cccc(N5CCC(CN)CC5)n4)n[nH]c3cn2)cn1 [Example 182, (1-(6-(5-(1-methyl-1H-pyrazol-4-yl)-1H-pyrazolo[3,4-c]pyridin-3-yl)pyridin-2-yl)piperidin-4-yl)methanamine] |
